#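 All cell lines were grown in 96-well plates and treated with compound for 48 hours. The concentration for full growth arrest is given as TGI.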
# Test system: SNB-19 CNS
# Experiment: growth of human tumour cells (NCI), 48 h
row,Compound,TGI [µM]
1,COC(=O)C1=C(C)NC2=C(C(=O)c3ccccc32)C1c1cn(-c2ccccc2)nc1-c1ccccc1 (stereo not drawn),> 100
2,OCC1OC(c2cccc3cc(O)c(O)cc23)CC1O (stereo not drawn),> 100
3,CC(C)(Cl)C(Br)CCC(C)(Cl)C(Br)CBr (stereo not drawn),> 100
4,O=C(NCC(=O)N1CCCC1C(=O)OC(=O)C1CCCN1C(=O)CNC(=O)OCc1ccccc1)OCc1ccccc1 (stereo not drawn),> 100
5,CN(Cc1cnc2nc(N)nc(N)c2n1)c1ccc(C(=O)NC(CCC(=O)NCCC(P(=O)(O)O)P(=O)(O)O)C(=O)O)cc1 (stereo not drawn),> 100
6,O=C1NC(NNc2ccccc2)=N/C1=C\c1ccccc1O,> 100
7,C[N+](CCCl)(CCCl)Cc1cccc2cccc([N+](=O)[O-])c12,> 100
8,O=C1NC(=O)C(c2c[nH]c3ccccc23)=C1c1cnc[nH]1,> 100
9,Cc1cc(C)nc(NC(=O)c2ccc(Br)s2)c1,> 100
10,N#Cc1nc2ccccc2nc1N1CCN(c2ccc([N+](=O)[O-])cc2)CC1,> 100
11,CN1CCN(C(=O)CCNC(=O)Cc2ccc(C(=O)c3ccccc3)cc2)CC1,> 100
12,COc1cc(OC)c(-c2ccc(OCc3ccccc3)c3c(OC)cc(C)cc23)c2c1C(C)=N[C@H](C)C2,4.54
13,COc1ccc(N2C(=O)C(=O)N(c3ccccc3[N+](=O)[O-])C2=S)cc1,> 100
14,O=C(O)CC1NC(/C(=C/c2ccccc2)NC(=O)c2ccccc2)OC1=O (stereo not drawn),67.6
15,Nc1c2c(nc3cc(F)c(F)cc13)CCC2,> 100
16,COc1ccccc1/C(=N\OCCC(=O)O)c1cccs1,> 100
17,CC(C)(Br)C(Br)CCC1(C2CO2)CO1 (stereo not drawn),> 5
18,CCCn1c2ccccc2c2ccc3c(c21)C(=O)C=CC3=O,> 10
19,CC1(c2cccs2)CC(c2cccs2)=C(C#N)C(=C(C#N)C#N)N1 (stereo not drawn),36.6
20,CCN(CC)CCC(=O)/C=C/c1ccccc1,37.1

# Test system: SW-620 colon
# Experiment: growth of human tumour cells (NCI), 48 h
row,Compound,TGI [µM]
1,OC1[C@@H]2[C@@H](O)[C@H](O)[C@@H](O)N2C[C@@H]1O (stereo partly drawn),> 100
2,C=C1C(=O)C[C@H]2C(=C)C(=O)O[C@@H]2C2C1CC[C@@]2(C)O (stereo partly drawn),> 100
3,COC(=O)C1=C(C)NC2=C(C(=O)c3ccccc32)C1c1cn(-c2ccccc2)nc1-c1ccccc1 (stereo not drawn),> 100
4,OCC1OC(c2cccc3cc(O)c(O)cc23)CC1O (stereo not drawn),> 100
5,CC(C)(Cl)C(Br)CCC(C)(Cl)C(Br)CBr (stereo not drawn),95.5
6,O=C(NCC(=O)N1CCCC1C(=O)OC(=O)C1CCCN1C(=O)CNC(=O)OCc1ccccc1)OCc1ccccc1 (stereo not drawn),> 100
7,CN(Cc1cnc2nc(N)nc(N)c2n1)c1ccc(C(=O)NC(CCC(=O)NCCC(P(=O)(O)O)P(=O)(O)O)C(=O)O)cc1 (stereo not drawn),> 100
8,O=C1NC(NNc2ccccc2)=N/C1=C\c1ccccc1O,> 100
9,C[N+](CCCl)(CCCl)Cc1cccc2cccc([N+](=O)[O-])c12,> 100
10,O=C1NC(=O)C(c2c[nH]c3ccccc23)=C1c1cnc[nH]1,> 100
11,Cc1c([N+](=O)[O-])ccc2c(NCCCN(C)C)ccnc12,55.6
12,Cc1cc(C)nc(NC(=O)c2ccc(Br)s2)c1,> 100
13,N#Cc1nc2ccccc2nc1N1CCN(c2ccc([N+](=O)[O-])cc2)CC1,> 100
14,CN1CCN(C(=O)CCNC(=O)Cc2ccc(C(=O)c3ccccc3)cc2)CC1,> 100
15,COc1cc(OC)c(-c2ccc(OCc3ccccc3)c3c(OC)cc(C)cc23)c2c1C(C)=N[C@H](C)C2,4.68
16,COc1ccc(N2C(=O)C(=O)N(c3ccccc3[N+](=O)[O-])C2=S)cc1,> 100
17,O=C(O)CC1NC(/C(=C/c2ccccc2)NC(=O)c2ccccc2)OC1=O (stereo not drawn),42
18,Nc1c2c(nc3cc(F)c(F)cc13)CCC2,> 100
19,COc1ccccc1/C(=N\OCCC(=O)O)c1cccs1,> 100
20,CC(C)(Br)C(Br)CCC1(C2CO2)CO1 (stereo not drawn),> 5
21,CCCn1c2ccccc2c2ccc3c(c21)C(=O)C=CC3=O,3.27
22,CC1(c2cccs2)CC(c2cccs2)=C(C#N)C(=C(C#N)C#N)N1 (stereo not drawn),43.7
23,O=C1C2CC=CCC2C(=O)N1n1c(Cc2ccc(Cl)cc2)n[nH]c1=O (stereo not drawn),> 100
24,CCN(CC)CCC(=O)/C=C/c1ccccc1,23.4
25,Oc1c(C2=NNC(c3ccc(Cl)cc3Cl)C2)ccc2ccccc12 (stereo not drawn),> 100

# Test system: IGROV1 ovarian
# Experiment: growth of human tumour cells (NCI), 48 h
row,Compound,TGI [µM]
1,OC1[C@@H]2[C@@H](O)[C@H](O)[C@@H](O)N2C[C@@H]1O (stereo partly drawn),> 100
2,C=C1C(=O)C[C@H]2C(=C)C(=O)O[C@@H]2C2C1CC[C@@]2(C)O (stereo partly drawn),> 100
3,COC(=O)C1=C(C)NC2=C(C(=O)c3ccccc32)C1c1cn(-c2ccccc2)nc1-c1ccccc1 (stereo not drawn),> 100
4,OCC1OC(c2cccc3cc(O)c(O)cc23)CC1O (stereo not drawn),> 100
5,CC(C)(Cl)C(Br)CCC(C)(Cl)C(Br)CBr (stereo not drawn),65.4
6,O=C(NCC(=O)N1CCCC1C(=O)OC(=O)C1CCCN1C(=O)CNC(=O)OCc1ccccc1)OCc1ccccc1 (stereo not drawn),> 100
7,CN(Cc1cnc2nc(N)nc(N)c2n1)c1ccc(C(=O)NC(CCC(=O)NCCC(P(=O)(O)O)P(=O)(O)O)C(=O)O)cc1 (stereo not drawn),> 100
8,O=C1NC(NNc2ccccc2)=N/C1=C\c1ccccc1O,> 100
9,C[N+](CCCl)(CCCl)Cc1cccc2cccc([N+](=O)[O-])c12,> 100
10,O=C1NC(=O)C(c2c[nH]c3ccccc23)=C1c1cnc[nH]1,> 100
11,Cc1c([N+](=O)[O-])ccc2c(NCCCN(C)C)ccnc12,52.7
12,Cc1cc(C)nc(NC(=O)c2ccc(Br)s2)c1,> 100
13,N#Cc1nc2ccccc2nc1N1CCN(c2ccc([N+](=O)[O-])cc2)CC1,> 100

# From PubChem BioAssay (NCI)
